In the NIST ThermoML archive (doi:10.1021/je060339m):

Details: Liquid

CCOC(C)=O [ethyl acetate]
Details	mass density [kg/m3]
298.15 K, 100 kPa	894
298.15 K, 1000 kPa	894.7
298.15 K, 2000 kPa	895.7
298.15 K, 3000 kPa	896.7
298.15 K, 3800 kPa	897.4
298.15 K, 5000 kPa	898.8
298.15 K, 10000 kPa	903.4
298.15 K, 15000 kPa	907.7
298.15 K, 20000 kPa	912
298.15 K, 25000 kPa	916.1
298.15 K, 30000 kPa	921.1
298.15 K, 35000 kPa	926.3
303.15 K, 100 kPa	887.6
303.15 K, 1000 kPa	888.5
303.15 K, 2000 kPa	889.5
303.15 K, 3000 kPa	890.5
303.15 K, 3800 kPa	891.3
303.15 K, 5000 kPa	892.7
303.15 K, 10000 kPa	897.5
303.15 K, 15000 kPa	902
303.15 K, 20000 kPa	906.3
303.15 K, 25000 kPa	910.7
303.15 K, 30000 kPa	915.9
303.15 K, 35000 kPa	921.2
308.15 K, 100 kPa	881.4
308.15 K, 1000 kPa	882.3
308.15 K, 2000 kPa	883.3
308.15 K, 3000 kPa	884.4
308.15 K, 3800 kPa	885.3
308.15 K, 5000 kPa	886.7
308.15 K, 10000 kPa	891.7
308.15 K, 15000 kPa	896.4
308.15 K, 20000 kPa	900.9
308.15 K, 25000 kPa	905.4
308.15 K, 30000 kPa	910.7
308.15 K, 35000 kPa	916.2
313.15 K, 100 kPa	875.2
313.15 K, 1000 kPa	876.1
313.15 K, 2000 kPa	877.2
313.15 K, 3000 kPa	878.3
313.15 K, 3800 kPa	879.2
313.15 K, 5000 kPa	880.6
313.15 K, 10000 kPa	885.8
313.15 K, 15000 kPa	890.7
313.15 K, 20000 kPa	895.4
313.15 K, 25000 kPa	899.8
313.15 K, 30000 kPa	905.3
313.15 K, 35000 kPa	910.9
318.15 K, 100 kPa	868.8
318.15 K, 1000 kPa	869.8
318.15 K, 2000 kPa	871
318.15 K, 3000 kPa	872.2
318.15 K, 3800 kPa	873.1
318.15 K, 5000 kPa	874.5
318.15 K, 10000 kPa	880
318.15 K, 15000 kPa	885.1
318.15 K, 20000 kPa	889.8
318.15 K, 25000 kPa	894.5
318.15 K, 30000 kPa	900.1
318.15 K, 35000 kPa	905.9
323.15 K, 100 kPa	862.7
323.15 K, 1000 kPa	864
323.15 K, 2000 kPa	865.1
323.15 K, 3000 kPa	866.2
323.15 K, 3800 kPa	867.1
323.15 K, 5000 kPa	868.6
323.15 K, 10000 kPa	874.2
323.15 K, 15000 kPa	879.4
323.15 K, 20000 kPa	884.3
323.15 K, 25000 kPa	889.2
323.15 K, 30000 kPa	895
323.15 K, 35000 kPa	900.9
328.15 K, 100 kPa	856.4
328.15 K, 1000 kPa	857.8
328.15 K, 2000 kPa	859.2
328.15 K, 3000 kPa	860.5
328.15 K, 3800 kPa	861.5
328.15 K, 5000 kPa	862.5
328.15 K, 10000 kPa	868.4
328.15 K, 15000 kPa	873.9
328.15 K, 20000 kPa	879
328.15 K, 25000 kPa	884.1
328.15 K, 30000 kPa	890.1
328.15 K, 35000 kPa	896.2
333.15 K, 100 kPa	850.4
333.15 K, 1000 kPa	851.7
333.15 K, 2000 kPa	853
333.15 K, 3000 kPa	854.4
333.15 K, 3800 kPa	855.4
333.15 K, 5000 kPa	856.8
333.15 K, 10000 kPa	862.9
333.15 K, 15000 kPa	868.5
333.15 K, 20000 kPa	873.8
333.15 K, 25000 kPa	879
333.15 K, 30000 kPa	885.2
333.15 K, 35000 kPa	891.4
338.15 K, 100 kPa	844
338.15 K, 1000 kPa	845.4
338.15 K, 2000 kPa	846.8
338.15 K, 3000 kPa	848.2
338.15 K, 3800 kPa	849.3
338.15 K, 5000 kPa	850.8
338.15 K, 10000 kPa	857.1
338.15 K, 15000 kPa	863
338.15 K, 20000 kPa	868.5
338.15 K, 25000 kPa	873.9
338.15 K, 30000 kPa	880.3
338.15 K, 35000 kPa	886.7
343.15 K, 100 kPa	837.5
343.15 K, 1000 kPa	839.1
343.15 K, 2000 kPa	840.6
343.15 K, 3000 kPa	842
343.15 K, 3800 kPa	843.2
343.15 K, 5000 kPa	844.5
343.15 K, 10000 kPa	851.2
343.15 K, 15000 kPa	857.3
343.15 K, 20000 kPa	863
343.15 K, 25000 kPa	868.5
343.15 K, 30000 kPa	875.1
343.15 K, 35000 kPa	881.6
348.15 K, 100 kPa	829.4
348.15 K, 1000 kPa	830.5
348.15 K, 2000 kPa	832.3
348.15 K, 3000 kPa	833.8
348.15 K, 3800 kPa	835
348.15 K, 5000 kPa	836.8
348.15 K, 10000 kPa	845.5
348.15 K, 15000 kPa	851.8
348.15 K, 20000 kPa	857.7
348.15 K, 25000 kPa	863.5
348.15 K, 30000 kPa	870.2
348.15 K, 35000 kPa	877
353.15 K, 1000 kPa	824.3
353.15 K, 2000 kPa	826
353.15 K, 3000 kPa	827.5
353.15 K, 3800 kPa	828.8
353.15 K, 5000 kPa	830.6
353.15 K, 10000 kPa	837.7
353.15 K, 15000 kPa	844.3
353.15 K, 20000 kPa	850.4
353.15 K, 25000 kPa	856.1
353.15 K, 30000 kPa	862.7
353.15 K, 35000 kPa	869.6
358.15 K, 1000 kPa	818.4
358.15 K, 2000 kPa	820
358.15 K, 3000 kPa	821.6
358.15 K, 3800 kPa	822.8
358.15 K, 5000 kPa	824.7
358.15 K, 10000 kPa	832.1
358.15 K, 15000 kPa	838.9
358.15 K, 20000 kPa	845.2
358.15 K, 25000 kPa	851
358.15 K, 30000 kPa	857.6
358.15 K, 35000 kPa	864.7
363.15 K, 1000 kPa	811.8
363.15 K, 2000 kPa	813.5
363.15 K, 3000 kPa	815.3
363.15 K, 3800 kPa	816.6
363.15 K, 5000 kPa	818.5
363.15 K, 10000 kPa	826.3
363.15 K, 15000 kPa	833.3
363.15 K, 20000 kPa	839.7
363.15 K, 25000 kPa	845.8
363.15 K, 30000 kPa	852.9
363.15 K, 35000 kPa	860.2
368.15 K, 1000 kPa	804.9
368.15 K, 2000 kPa	806.8
368.15 K, 3000 kPa	808.6
368.15 K, 3800 kPa	810
368.15 K, 5000 kPa	812.1
368.15 K, 10000 kPa	820.2
368.15 K, 15000 kPa	827.5
368.15 K, 20000 kPa	834.3
368.15 K, 25000 kPa	840.6
368.15 K, 30000 kPa	848
368.15 K, 35000 kPa	855.5
373.15 K, 1000 kPa	798.5
373.15 K, 2000 kPa	800.4
373.15 K, 3000 kPa	802.4
373.15 K, 3800 kPa	803.8
373.15 K, 5000 kPa	806
373.15 K, 10000 kPa	814.4
373.15 K, 15000 kPa	822
373.15 K, 20000 kPa	829
373.15 K, 25000 kPa	835.5
373.15 K, 30000 kPa	843
373.15 K, 35000 kPa	850.6
378.15 K, 1000 kPa	791.8
378.15 K, 2000 kPa	793.8
378.15 K, 3000 kPa	795.8
378.15 K, 3800 kPa	797.3
378.15 K, 5000 kPa	799.6
378.15 K, 10000 kPa	808.5
378.15 K, 15000 kPa	816.5
378.15 K, 20000 kPa	823.7
378.15 K, 25000 kPa	830.5
378.15 K, 30000 kPa	838.4
378.15 K, 35000 kPa	846.3
383.15 K, 1000 kPa	784.8
383.15 K, 2000 kPa	787.1
383.15 K, 3000 kPa	789.1
383.15 K, 3800 kPa	790.8
383.15 K, 5000 kPa	793.2
383.15 K, 10000 kPa	802.4
383.15 K, 15000 kPa	810.7
383.15 K, 20000 kPa	818.2
383.15 K, 25000 kPa	825.3
383.15 K, 30000 kPa	833.5
383.15 K, 35000 kPa	841.6
388.15 K, 1000 kPa	778.2
388.15 K, 2000 kPa	780.5
388.15 K, 3000 kPa	782.7
388.15 K, 3800 kPa	784.4
388.15 K, 5000 kPa	786.9
388.15 K, 10000 kPa	796.4
388.15 K, 15000 kPa	805.1
388.15 K, 20000 kPa	813
388.15 K, 25000 kPa	820.3
388.15 K, 30000 kPa	828.8
388.15 K, 35000 kPa	837.2
393.15 K, 1000 kPa	771
393.15 K, 2000 kPa	773.5
393.15 K, 3000 kPa	775.9
393.15 K, 3800 kPa	777.7
393.15 K, 5000 kPa	780.4
393.15 K, 10000 kPa	790.5
393.15 K, 15000 kPa	799.4
393.15 K, 20000 kPa	807.6
393.15 K, 25000 kPa	815.2
393.15 K, 30000 kPa	823.9
393.15 K, 35000 kPa	832.4
